In US9000045B2, “CETP activity inhibitors” (Japan Tobacco Inc., priority 1997, dated 2015):

Molecular target: T1, CETP (Homo sapiens, UniProt P11597)
T1 sequence (P11597 18-493): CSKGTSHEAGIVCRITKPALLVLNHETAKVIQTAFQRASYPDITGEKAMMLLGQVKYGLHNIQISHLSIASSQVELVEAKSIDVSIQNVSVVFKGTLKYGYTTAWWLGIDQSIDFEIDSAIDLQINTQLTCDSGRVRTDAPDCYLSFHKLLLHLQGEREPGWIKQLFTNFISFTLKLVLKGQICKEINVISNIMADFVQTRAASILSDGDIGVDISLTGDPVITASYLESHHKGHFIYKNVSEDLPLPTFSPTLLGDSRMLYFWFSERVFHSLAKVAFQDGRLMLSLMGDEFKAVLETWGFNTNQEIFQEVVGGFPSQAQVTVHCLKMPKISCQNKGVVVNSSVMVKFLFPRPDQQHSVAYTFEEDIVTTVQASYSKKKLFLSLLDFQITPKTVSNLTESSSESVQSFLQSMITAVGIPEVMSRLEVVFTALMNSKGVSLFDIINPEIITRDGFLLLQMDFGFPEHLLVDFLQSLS
Assay: In vitro CETP activity inhibitory effect in whole plasma
Assay type: biochemical
Set-up: Plasma containing [^3H]CE-HDL3 (600,000 dpm/ml) was prepared by adding donor lipoprotein obtained in the above (1) to plasma from healthy subjects; from tissue; host or cells: whole plasma of healthy subjects
Conditions: plasma from healthy subjects containing [3H]CE-HDL3, incubated 4 hours at 37° C.; read-out: CETP activity inhibition in whole plasma IC50
Method: The fraction thus obtained was dialyzed against a PBS solution [10 mM Na2HPO4/10 mM NaH2PO4/0.15 M NaCl/1 mM EDTA (pH 7.4)]. Then, tritium-labeled cholesterol (10 nM) (50.3 Ci/mM) was dissolved in 95% ethanol and added gradually to the above HDL3 fraction under stirring. The solution was incubated for 18 hours at 37° C. […] After incubation, KBr was added and specific gravity was adjusted to d=1.21 g/ml. […] A sample solution was prepared using a 1:1 solution of N-methylpyrrolidone and polyethyleneglycol 400 as a solvent. […] Based on the inhibition rate (%) of CETP activity, IC50 value of each sample was calculated.

SMILES	IC50
COC(=O)CCC(=O)Sc1cc(Cl)c(Cl)cc1NC(=O)C1(CCC(C)C)CCCCC1 [Example 25-79]	6 µM
CC(C)CCC1(C(=O)Nc2cc(Cl)c(Cl)cc2SC(=O)CN(C)C)CCCCC1 [Example 25-80]	5 µM
CC(C)CCC1(C(=O)Nc2cc(Cl)c(Cl)cc2SC(=O)c2ccccc2)CCCCC1 [Example 25-81]	14 µM
CC(C)CCC1(C(=O)Nc2cc(Cl)c(Cl)cc2SC(=O)C2CCCCC2)CCCCC1 [Example 25-82]	17 µM
CC(C)CCC1(C(=O)Nc2cc(Cl)c(Cl)cc2SC(=O)Cc2ccccc2)CCCCC1 [Example 25-83]	18 µM
CCC(=O)Sc1cc(Cl)c(Cl)cc1NC(=O)C1(CCC(C)C)CCCCC1 [Example 25-85]	7 µM
COCC(=O)Sc1cc(Cl)c(Cl)cc1NC(=O)C1(CCC(C)C)CCCCC1 [Example 25-86]	10 µM
CC(C)CCC1(C(=O)Nc2cc(Cl)c(Cl)cc2SC(=O)c2cccnc2)CCCC1 [Example 25-87]	6 µM
COC(=O)Sc1cc(Cl)c(Cl)cc1NC(=O)C1(CCC(C)C)CCCCC1 [Example 25-91]	22 µM
CCSC(=O)Sc1ccc(C(F)(F)F)cc1NC(=O)C1(C)CCCCC1 [Example 25-92]	19 µM
CC1(C(=O)Nc2cc(C(F)(F)F)ccc2SC(=O)Sc2ccccc2)CCCCC1 [Example 25-93]	22 µM
CC(C)(C)C(=O)Nc1ccccc1SC(=O)Sc1ccccc1NC(=O)C(C)(C)C [Example 25-94]	18 µM
CC1(C(=O)Nc2ccccc2SC(=O)Sc2ccccc2NC(=O)C2(C)CCCCC2)CCCCC1 [Example 25-95]	18 µM
CC1(C(=O)Nc2cc(C(F)(F)F)ccc2SC(=O)Sc2ccc(C(F)(F)F)cc2NC(=O)C2(C)CCCCC2)CCCCC1 [Example 25-96]	8 µM
CC(C)CCC1(C(=O)Nc2ccccc2SC(=O)NC(C)C)CCCCC1 [Example 25-98]	8 µM
CCNC(=O)Sc1ccccc1NC(=O)C1(CCC(C)C)CCCCC1 [Example 25-99]	6 µM
CC(C)CCC1(C(=O)Nc2cc(Cl)c(Cl)cc2SC(=O)NC(C)C)CCCCC1 [Example 25-103]	12 µM
CCNC(=O)Sc1cc(Cl)c(Cl)cc1NC(=O)C1(CCC(C)C)CCCCC1 [Example 25-104]	9 µM
CC(C)(C)C(=O)Sc1ccccc1NC(=O)C1(C)CCCCC1 [Example 30]	72 µM
CC(C)(C)C(=O)Nc1ccccc1SC(=O)Cc1ccccc1 [Example 31]	32 µM
CC1(C(=O)Nc2ccccc2SC(=O)c2ccccc2)CCCCC1 [Example 32]	32 µM
CC(C)CCC1(C(=O)Nc2ccccc2SC(=O)c2cccnc2)CCCCC1 [Example 35]	4 µM
CC(C)CCC1(C(=O)Nc2ccccc2SC(=O)C2CCCCC2)CCCCC1 [Example 43]	49 µM

SMILES	IC50
CC(C)CCC1(C(=O)Nc2ccccc2SC(=O)c2ccccc2)CCCCC1 [Example 44]	23 µM
CC(C)CCC1(C(=O)Nc2cc(Cl)c(Cl)cc2SC(=O)C(C)(C)C)CCCCC1 [Example 50]	2 µM
CC(C)CCC1(C(=O)Nc2cc(Cl)c(Cl)cc2SC(=O)C(C)(C)C)CCCC1 [Example 51]	16 µM
CC(C)CCC1(C(=O)Nc2ccccc2SC(=O)CCCCC(=O)O)CCCCC1 [Example 53]	8 µM
COC(=O)Sc1ccccc1NC(=O)C1(CCC(C)C)CCCCC1 [Example 54]	12 µM
CC1(C(=O)Nc2ccccc2SC(=O)Sc2ccccc2)CCCCC1 [Example 55]	65 µM
CC(C)(C)C(=O)Nc1cc(C(F)(F)F)ccc1SC(=O)C(C)(C)C [Example 57]	41 µM
CC(C)C1(C(=O)Nc2cc(Cl)c(Cl)cc2SC(=O)C(C)(C)C)CCCCC1 [Example 66, S-[4,5-dichloro-2-(1-isopropylcyclohexanecarbonyl-amino)phenyl]2,2-dimethylthiopropionate]	7 µM
CC1(C(=O)Nc2cc(Cl)ccc2SC(=O)Cc2ccccc2)CCCCC1 [Example 66-3]	24 µM
CC(C)(C)C(=O)Sc1ccc(Cl)cc1NC(=O)C1(C)CCCCC1 [Example 66-4]	28 µM
CC(C)(C)C(=O)Sc1cc(Cl)c(Cl)cc1NC(=O)C1(C)CCCCC1 [Example 66-9]	9 µM
CC(=O)N[C@@H](Cc1ccccc1)C(=O)Sc1cc(Cl)c(Cl)cc1NC(=O)C1(C)CCCCC1 [Example 66-10]	23 µM
CC(=O)N[C@H](Cc1ccccc1)C(=O)Sc1cc(Cl)c(Cl)cc1NC(=O)C1(C)CCCCC1 [Example 66-11]	22 µM
CC1(C(=O)Nc2cc(Cl)c(Cl)cc2SC(=O)[C@@H](N)Cc2ccccc2)CCCCC1 [Example 66-12]	17 µM
CC(C)CC(CC(C)C)C(=O)Nc1cc(Cl)c(Cl)cc1SC(=O)C(C)(C)C [Example 66-14]	11 µM
CCCC1(C(=O)Nc2cc(Cl)c(Cl)cc2SC(=O)C(C)(C)C)CCCCC1 [Example 66-16]	8 µM
CC(C)(C)C(=O)Sc1cc(Cl)c(Cl)cc1NC(=O)C1C(C)(C)C1(C)C [Example 66-17]	18 µM
CC(C)(C)C(=O)Sc1cc(Cl)c(Cl)cc1NC(=O)C1(C2CCCCC2)CCCCC1 [Example 66-18]	11 µM
CC(C)(C)C(=O)Sc1cc(Cl)c(Cl)cc1NC(=O)c1ccncc1 [Example 66-21]	41 µM
CC(C)(C)C(=O)Sc1cc(Cl)c(Cl)cc1NC(=O)[C@]12CCCC[C@@H]1CCCC2 [Example 66-22]	19 µM
CC(C)(C)C(=O)Sc1cc(Cl)c(Cl)cc1NC(=O)[C@]12CCCC[C@@H]1CCC2 [Example 66-23]	13 µM
CC(C)(C)C(=O)Sc1cc(Cl)c(Cl)cc1NC(=O)[C@@]12CCCC[C@@H]1CCC2 [Example 66-24]	12 µM
CC(C)(C)C(=O)Sc1cc(Cl)c(Cl)cc1NC(=O)C1CCCCC1 [Example 66-25]	19 µM

SMILES	IC50
CC(C)(C)C(=O)Sc1cc(Cl)c(Cl)cc1NC(=O)C1CCC(C(C)(C)C)CC1 (stereo not drawn) [Example 66-26]	8 µM
CC(C)(C)C(=O)Sc1cc(Cl)c(Cl)cc1NC(=O)[C@H]1CC[C@H](C(C)(C)C)CC1 [Example 66-27]	9 µM
CC(C)(C)C(=O)Sc1cc(Cl)c(Cl)cc1NC(=O)CC1CCCCC1 [Example 66-28]	18 µM
CCCCC1(C(=O)Nc2cc(Cl)c(Cl)cc2SC(=O)C(C)(C)C)CCCCC1 [Example 66-29]	7 µM
CC(C)(C)C(=O)Sc1cc(Cl)c(Cl)cc1NC(=O)[C@H]1CC[C@H](C)CC1 [Example 66-30]	19 µM
CC(C)(C)C(=O)Sc1cc(Cl)c(Cl)cc1NC(=O)[C@H]1CC[C@H](C2CCCCC2)CC1 [Example 66-31]	27 µM
CC(C)[C@H]1CC[C@H](C(=O)Nc2cc(Cl)c(Cl)cc2SC(=O)C(C)(C)C)CC1 [Example 66-32]	22 µM
CCC[C@H]1CC[C@H](C(=O)Nc2cc(Cl)c(Cl)cc2SC(=O)C(C)(C)C)CC1 [Example 66-33]	19 µM
CCCCC[C@H]1CC[C@H](C(=O)Nc2cc(Cl)c(Cl)cc2SC(=O)C(C)(C)C)CC1 [Example 66-34]	22 µM
CC(C)C(C(=O)Nc1cc(Cl)c(Cl)cc1SC(=O)C(C)(C)C)C1CCCCC1 (stereo not drawn) [Example 66-38]	26 µM
CC(C)CC(C(=O)Nc1cc(Cl)c(Cl)cc1SC(=O)C(C)(C)C)C1CCCCC1 (stereo not drawn) [Example 66-40]	42 µM
CC(C)(C)C(=O)Sc1cc(Cl)c(Cl)cc1NC(=O)C(C)(C)C1CCCCC1 [Example 66-41]	25 µM
CC(C)CC1(C(=O)Nc2cc(Cl)c(Cl)cc2SC(=O)C(C)(C)C)CCCCC1 [Example 66-42]	10 µM
CC(C)CCCC1(C(=O)Nc2cc(Cl)c(Cl)cc2SC(=O)C(C)(C)C)CCCCC1 [Example 66-43]	23 µM
CC(C)(C)CC1(C(=O)Nc2cc(Cl)c(Cl)cc2SC(=O)C(C)(C)C)CCCCC1 [Example 66-46]	35 µM
CC(C)(C)C(=O)Sc1cc(Cl)c(Cl)cc1NC(=O)C1(CCC2CC2)CCCCC1 [Example 66-48]	11 µM
CC(C)CC1(C(=O)Nc2cc(Cl)c(Cl)cc2SC(=O)C(C)(C)C)CCCC1 [Example 66-49]	40 µM
CC(C)(C)C(=O)Sc1cc(Cl)c(Cl)cc1NC(=O)C1(CC2CCCCC2)CCCC1 [Example 66-51]	45 µM
COC(=O)Sc1cc(Cl)c(Cl)cc1NC(=O)C1(C)CCCCC1 [Example 66-52]	46 µM
CCNC(=O)Sc1cc(Cl)c(Cl)cc1NC(=O)C1(C)CCCCC1 [Example 66-53]	15 µM
CC(C)(C)C(=O)Sc1cc(Cl)c(Cl)cc1NC(=O)C1(C2CC2)CCCCC1 [Example 67]	9 µM
CC(C(=O)Nc1cc(Cl)c(Cl)cc1SC(=O)C(C)(C)C)C1CCCCC1 (stereo not drawn) [Example 68]	10 µM
CCCCCC1(C(=O)Nc2cc(Cl)c(Cl)cc2SC(=O)C(C)(C)C)CCCCC1 [Example 69]	6 µM
